{
  "source": "paper PMC7608132",
  "about": "(Acta Pharmacologica Sinica, 2020)",
  "key": {"[1]": {"conditions": "rifampin; cited from earlier work"}, "[2]": {"conditions": "HLMs, 3 µM alflutinib, selective inhibitor at the concentration of b13"}},
  "note": "Like-named read-outs stand apart in the source and are kept apart here.",
  "data": [
    {"smiles": "O=c1c(O)c(-c2ccc(O)c(O)c2)oc2cc(O)cc(O)c12", "note": "[Quercetin, quercetin]", "values": [
      {"measurement": "Suppression of the production of AST5902", "setting": "CYP enzymes in HLMs; [2]", "value": 68, "unit": "%"}
    ]},
    {"smiles": "Cc1ncsc1CCCl", "note": "[chlormethiazole]", "values": [
      {"measurement": "Effect on the formation of alflutinib metabolites", "setting": "CYP enzymes in HLMs; HLMs, α-naphthoflavone 2 µM, chlormethiazole 24 µM", "value": "no significant effects"}
    ]},
    {"smiles": "CO[C@H]1/C=C/O[C@@]2(C)Oc3c(C)c(O)c4c(O)c(c(/C=N/N5CCN(C)CC5)c(O)c4c3C2=O)NC(=O)/C(C)=C\\C=C\\[C@H](C)[C@H](O)[C@@H](C)[C@@H](O)[C@@H](C)[C@H](OC(C)=O)[C@@H]1C", "note": "[Rifampin]", "values": [
      {"measurement": "In vivo concentrations", "setting": "[1]", "value": "10 to 18", "unit": "µM"}
    ]},
    {"smiles": "Nn1nnc2ccccc21", "note": "[ABT, 1-aminobenzotriazole]", "values": [
      {"measurement": "Suppression of the production of AST5902", "setting": "CYP enzymes in HLMs", "value": 98, "unit": "%"}
    ]},
    {"smiles": "O=c1cc(-c2ccccc2)oc2c1ccc1ccccc12", "note": "[α-Naphthoflavone, α-naphthoflavone]", "values": [
      {"measurement": "Effect on the formation of alflutinib metabolites", "setting": "CYP enzymes in HLMs", "value": "no significant effects"}
    ]},
    {"smiles": "Nc1ccc(S(=O)(=O)Nc2ccnn2-c2ccccc2)cc1", "note": "[Sulfaphenazole, sulfaphenazole]", "values": [
      {"measurement": "Suppression of the production of AST5902", "setting": "CYP enzymes in HLMs; [2]", "value": 45, "unit": "%"}
    ]}
  ]
}
